We go through one compound from patent US6713436B1, “1-cycloalkylpyrazolyl-benzoyl derivatives” (BASF Aktiengesellschaft, priority 1999, dated 2004).

SMILES strings stand for the structures.

One data set has as its system Brachiaria plantaginea. The data set is described as follows: greenhouse post-emergence herbicidal test. The format is in vivo. The note with it: Brachiaria plantaginea (alexander grass), application rates of 0.5 or 0.25 kg/ha. From the text:
(§1) The seeds of the test plants were sown separately for each species. For the post-emergence treatment, the test plants were first grown to a height of 3 to 15 cm, depending on the plant habit, and only then treated with the active compounds which had been suspended or emulsified in water. The test plants were for this purpose either sown directly and grown in the same containers, or they were first grown separately as seedlings and transplanted into the test containers a few days prior to treatment. The application rate for the post-emergence treatment was 0.5 or 0.25 kg of a.s. (active substance)/ha. Depending on the species, the plants were kept at 10-25° C. or 20-35° C. The test period extended over 2 to 4 weeks. During this time, the plants were tended, and their response to the individual treatments was evaluated. The evaluation was carried out using a scale from 0 to 100. 100 means no emergence of the plants, or complete destruction of at least the aerial parts and 0 means no damage, or normal course of growth. The plants used in the greenhouse experiments were of the following species: [table]

The next data set concerns Chenopodium album. The data set is described as follows: greenhouse post-emergence herbicidal test. The note with it: Chenopodium album (lamb's-quarters), application rates of 0.5 or 0.25 kg/ha. It counts as in vivo.
Description: as §1

The subject of the next data set is Echinochloa crus-galli. The data set is described as follows: greenhouse post-emergence herbicidal test. It counts as in vivo. The note with it: Echinochloa crus-galli (barnyard grass), application rates of 0.5 or 0.25 kg/ha.
Description: as §1

In a further data set the test system is Polygonum persicaria. The data set is described as follows: greenhouse post-emergence herbicidal test. The note with it: Polygonum persicaria (lady's-thumb), application rates of 0.5 or 0.25 kg/ha. The format is in vivo.
Description: as §1

Compound `Cc1c(C(=O)c2cnn(C3CCCC3)c2O)ccc(S(C)(=O)=O)c1C1=NOCC1` [compound 4.6, 4-[2-Methyl-3-(4,5-dihydroisoxazol-3-yl)-4-methylsulfonylbenzoyl]-1-cyclopentyl-5-hydroxy-1H-pyrazole] returned a melting point of 135 to 140 °C. Also, the post-emergence action result with Brachiaria plantaginea is reported as “very good”. For the same compound, in the data set on Chenopodium album, the post-emergence action result was “very good”. The post-emergence action result in the data set on Echinochloa crus-galli is “very good”. Moreover, in the data set with Polygonum persicaria, the post-emergence action result is “very good”.
